In patent US12371454B2, “Cyclic peptide compound having Kras inhibitory action” (priority 2019, dated 2025):
Starred links: 1 amine or outer side, 2 acyl side, 3 side chain; linkers in the order of their positions; H or OH if unused. Positions of bridges follow the written chain, without caps; N, C: chain ends. Non-standard residues stand in square brackets, D forms with d. Residues, ends and D or L forms follow the SMILES beside them. *: point of attachment. hPhe(3,5-F2-4-CF3) = N[C@@H](CCc1cc(F)c(C(F)(F)F)c(F)c1)C(=O)O; hPhe(3-Cl-4-CF3) = N[C@@H](CCc1ccc(C(F)(F)F)c(Cl)c1)C(=O)O; NMeDab(N,N-(CH2CF2CH2)) = CN[C@@H](CCN1CC(F)(F)C1)C(=O)O; NMePhe(4-CF3) = CN[C@@H](Cc1ccc(C(F)(F)F)cc1)C(=O)O; Piperazinyl(4-(3-oxetanyl)) = C1OCC1N1CCN(*)CC1; NMePhe(2-Cl) = CN[C@@H](Cc1ccccc1Cl)C(=O)O; NMedβ3hAla = C[C@H](CC(=O)[*:2])N(C)[*:1]; NMeGly(cPent) = CN[C@H](C(=O)O)C1CCCC1; Pro(4,4-F2) = O=C(O)[C@@H]1CC(F)(F)CN1; NMeCha = CN[C@@H](CC1CCCCC1)C(=O)O; NMeChg = CN[C@H](C(=O)O)C1CCCCC1; NMeI = CC[C@H](C)[C@H](NC)C(=O)O; Gly(cPr) = N[C@H](C(=O)O)C1CC1; NMeD = CN[C@@H](CC(=O)O)C(=O)O; NMeL = CN[C@@H](CC(C)C)C(=O)O; NMeV = CN[C@H](C(=O)O)C(C)C; Trifluoroethyl = FC(F)(F)C*; d(β3hA) = C[C@@H](N)CC(=O)O; dPip = O=C(O)[C@H]1CCCCN1; NMeA = CN[C@@H](C)C(=O)O; Piperidide = C1CCN(*)CC1; Pyrrolidide = C1CCN(*)C1; Ac5c = NC1(C(=O)O)CCCC1; Aze = O=C(O)[C@@H]1CCN1; X27 = Clc1ccccc1C*; Sar = CNCC(=O)O

target: T1, Kras and SOS1 (biotin-tagged human Kras loaded with GDP, His-tagged human SOS1) (Homo sapiens, UniProt P01116, G12D); experiment: Protein-protein interaction inhibition between Kras and SOS1 (KrasGl2D-SOS PPI) using AlphaScreen; type: binding; settings: AlphaScreen; biotin-tagged human Kras loaded with GDP, His-tagged human SOS1; read-out: KRAS G12D-SOS PPI IC50
T1 construct: made in house; host or cells: E. coli (stated for Kras only)
T1 sequence (P01116 1-188 isoform P01116-2 G12D): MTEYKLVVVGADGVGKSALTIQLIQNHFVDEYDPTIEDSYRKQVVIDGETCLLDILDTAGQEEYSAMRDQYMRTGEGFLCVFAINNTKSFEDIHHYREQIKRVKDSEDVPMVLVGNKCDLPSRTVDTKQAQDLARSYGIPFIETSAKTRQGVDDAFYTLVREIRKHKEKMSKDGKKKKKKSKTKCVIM
How it was run: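 Energy transfer from nickel-chelate donor beads bound to His-SOS1 to streptavidin acceptor beads bound to biotin-Kras, expressed in E. coli and loaded with GDP after purification, was monitored. Donors were excited at 680 nm; singlet oxygen reaching acceptors gave emission read at 520-620 nm.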

Going from `CC[C@H](C)[C@@H]1NC(=O)[C@H](CC(C)C)N(C)C(=O)C[C@@H](C(=O)N2CCCC2)N(C)C(=O)[C@H]([C@@H](C)CC)N(C)C(=O)C2(CCCC2)NC(=O)[C@@H]2CCCN2C(=O)[C@H](CCc2cc(F)c(C(F)(F)F)c(F)c2)NC(=O)CN(C)C(=O)[C@H](Cc2ccc(C(F)(F)F)cc2)N(C)C(=O)[C@@H]2CCN2C(=O)[C@H](C)N(C)C1=O` [Compound 1343] ([NMeL]I[NMeA][Aze][NMePhe(4-CF3)][Sar][hPhe(3,5-F2-4-CF3)]P[Ac5c][NMeI][NMeD]-Pyrrolidide; lactam N-11) to `CC[C@H](C)[C@@H]1NC(=O)[C@H](CC(C)C)N(C)C(=O)C[C@@H](C)N(C)C(=O)[C@H](C2CCCC2)N(C)C(=O)C2(CCCC2)NC(=O)[C@@H]2CC(F)(F)CN2C(=O)[C@H](CCc2ccc(C(F)(F)F)c(Cl)c2)NC(=O)CN(C)C(=O)[C@H](Cc2ccc(C(F)(F)F)cc2)N(C)C(=O)CN(C)C(=O)CN(C)C1=O` [Compound 611] (cyclo([Ac5c][NMeGly(cPent)][NMedβ3hAla][NMeL]I[Sar][Sar][NMePhe(4-CF3)][Sar][hPhe(3-Cl-4-CF3)][Pro(4,4-F2)])), the IC50 rises from 0.61 nM to 3.3 nM (5.4-fold). The first is the more potent here.

First: CC(C)C[C@H]1C(=O)N[C@@H](COCC(F)(F)F)C(=O)N(C)CC(=O)N(C)CC(=O)N(C)[C@@H](CC2CCCCC2)C(=O)N(C)CC(=O)N[C@@H](CCc2ccc(C(F)(F)F)c(Cl)c2)C(=O)N2CCC[C@H]2C(=O)NC2(CCCC2)C(=O)N(C)[C@@H](C2CCCCC2)C(=O)N(C)[C@H](C(=O)N2CCCCC2)CC(=O)N1C [Compound 894] ([NMeL]S(Trifluoroethyl)[Sar][Sar][NMeCha][Sar][hPhe(3-Cl-4-CF3)]P[Ac5c][NMeChg][NMeD]-Piperidide; lactam N-11)
Second: CC(C)C[C@H]1C(=O)N[C@@H](C2CC2)C(=O)N(C)CC(=O)N(C)CC(=O)N(C)[C@@H](CC2CCCCC2)C(=O)N(C)CC(=O)N[C@@H](CCc2ccc(C(F)(F)F)c(Cl)c2)C(=O)N2CCC[C@H]2C(=O)NC2(CCCC2)C(=O)N(C)[C@@H](C2CCCCC2)C(=O)N(C)[C@H](C(=O)N2CCCCC2)CC(=O)N1C [Compound 1862] ([NMeL][Gly(cPr)][Sar][Sar][NMeCha][Sar][hPhe(3-Cl-4-CF3)]P[Ac5c][NMeChg][NMeD]-Piperidide; lactam N-11)
The IC50 of the first is 5.5-fold higher: 11 nM for the first, 2 nM for the second. The second is the more potent here.

Going from `CC[C@H](C)[C@@H]1NC(=O)[C@H](C)N(C)C(=O)C[C@@H](C)NC(=O)[C@H](C(C)C)N(C)C(=O)C2(CCCC2)NC(=O)[C@@H]2CCCN2C(=O)[C@H](CCc2ccc(C(F)(F)F)c(Cl)c2)NC(=O)[C@H]2CCCCN2C(=O)[C@H](CC2CCCCC2)N(C)C(=O)[C@@H]2CCN2C(=O)CN(C)C1=O` [Compound 267] (cyclo([Ac5c][NMeV][d(β3hA)][NMeA]I[Sar][Aze][NMeCha][dPip][hPhe(3-Cl-4-CF3)]P)) to `CC[C@H](C)[C@@H]1NC(=O)[C@H](CC(C)C)N(C)C(=O)C[C@@H](C(=O)N2CCN(C3COC3)CC2)NC(=O)[C@H]([C@@H](C)CC)N(C)C(=O)C2(CCCC2)NC(=O)[C@@H]2CCCN2C(=O)[C@H](CCc2ccc(C(F)(F)F)c(Cl)c2)NC(=O)CN(C)C(=O)[C@H](CC2CCCCC2)N(C)C(=O)CN(C)C(=O)CN(C)C1=O` [Compound 1191] ([NMeL]I[Sar][Sar][NMeCha][Sar][hPhe(3-Cl-4-CF3)]P[Ac5c][NMeI]D-{Piperazinyl(4-(3-oxetanyl))}; lactam N-11), the IC50 falls from 130 nM to 6.7 nM (19-fold). The second is the more potent here.

First: CC[C@H](C)[C@@H]1NC(=O)[C@H](C)N(C)C(=O)C[C@@H](C(=O)N2CCCCC2)N(C)C(=O)[C@H](C(C)C)N(C)C(=O)[C@H](COC)NC(=O)[C@H](CCN2CC(F)(F)C2)N(C)C(=O)[C@H](CCc2ccc(C(F)(F)F)c(Cl)c2)NC(=O)CN(C)C(=O)[C@H](CC2CCCCC2)N(C)C(=O)CN(C)C(=O)CN(C)C1=O [Compound 655] ([NMeA]I[Sar][Sar][NMeCha][Sar][hPhe(3-Cl-4-CF3)][NMeDab(N,N-(CH2CF2CH2))]S(Me)[NMeV][NMeD]-Piperidide; lactam N-11)
Second: CC[C@H](C)[C@@H]1NC(=O)[C@H](CC(C)C)N(C)C(=O)C[C@@H](C(=O)N(C)C)N(C)C(=O)[C@H](C2CCCC2)N(C)C(=O)C2(CCCC2)NC(=O)[C@H](Cc2ccccc2Cl)N(C)C(=O)[C@H](CCc2ccc(C(F)(F)F)c(Cl)c2)NC(=O)CN(C)C(=O)[C@H](CC2CCCCC2)N(C)C(=O)[C@@H]2CCN2C(=O)[C@H](C)N(C)C1=O [Compound 1009] ([NMeL]I[NMeA][Aze][NMeCha][Sar][hPhe(3-Cl-4-CF3)][NMePhe(2-Cl)][Ac5c][NMeGly(cPent)][NMeD]-NMe2; lactam N-11)
The IC50 of the first is 8.8-fold lower: 4.9 nM for the first, 43 nM for the second. The first is the more potent here.

In the case of `CC[C@H](C)[C@@H]1NC(=O)[C@H](C)N(C)C(=O)C[C@@H](C(=O)N2CCCCC2)N(C)C(=O)[C@H](C2CCCCC2)N(C)C(=O)C2(CCCC2)NC(=O)[C@@H]2CCCN2C(=O)[C@H](COCc2ccccc2Cl)NC(=O)CN(C)C(=O)[C@H](CC2CCCCC2)N(C)C(=O)CN(C)C(=O)CN(C)C1=O` [Compound 2043] ([NMeA]I[Sar][Sar][NMeCha][Sar]S(X27)P[Ac5c][NMeChg][NMeD]-Piperidide; lactam N-11), the IC50 is reported as 12 nM.
